“Also recorded” adds a separate entry of the source.
Tests used:
[1] = test system: SH-SY5Y cells; assay: 72-h MTT viability assay, SH-SY5Y; type: cell-based, human; conditions: 72 h incubation, mean of 3 experiments +/-SD, no effect = viability (SF) similar to control, about 100%; for IC50: Homo sapiens, SH-SY5Y
Text: (§1) The IC50 for cell viability was described with a dose of the drug, with a 50% reduction in the whole population, when compared to the untreated controls. The obtained results allow for a comparison of different compounds, using the same or different targeted cell lines. Cell survival fractions (SF), followed by the MTT 72-h viability assay for the HCT116 and SH-5YSY cells, are presented in the Supplementary File (Figure S1).
(§2) For cytological studies, human cancer cell lines were chosen, with special emphasis on the colorectal, HCT116, and neuroblastoma SH-5YSY cell lines, as well as lung normal epithelial BEAS-2B and cancer H1299 and A549 cancer cell lines (all obtained from the ATTC collection; Manassas, VA, USA). The cells were harvested under the standard conditions in incubator (5% CO2, 37 °C and 60% humidity; Panasonic model MCO-19 AIC). Cells were cultured in T75 mL sterile bottles (Sartedt), using DMEM-F12 medium (Merck, Poznań, Poland) supplemented with 10% of Fetal Bovine Serum (EURx, Gdańsk, Poland). During the experimental procedure, each cell line wasn’t more than 60–80% confluenced, no older than maximal number of passages 30. For adherent cell passages, the enzyme trypsin working solution, prepared in sodium phosphate buffer saline (PBS, pH = 7.4; PAN-Biotech Gmbh, Aidenbach, Germany), was used. The tested compounds were prepared as […] stocks in 100% DMSO (Merck, Poznań, Poland), and were stored at −20 °C. Before use in cytological studies, the working solution of each compound was prepared directly in complete DMEM-F12 medium. A positive-control, anticancer drug, etoposide (Merck, Poznań, Poland), was dissolved and prepared as solutions with doses of 20, 10, 5, 2.5, 1.25, 0.63 µM (0 µM for control, untreated cells in DMEM-F12 without any tested compound additions), respectively.
(§3) HCT116 and SH-5YSY cells collected after trypsinization were counted under the Bürker’s chamber, and 2000 or 5000 cells were seeded on each well of the 96-well-format sterile plate (Sarstedt, Nümbrecht, Germany), in 100 µL of complete DMEM-F12 medium, respectively. Twenty-four hours before compound addition, the cells were monitored directly on plates; only well-attached cells were used for treatments with background controls (DMSO with final maximal concentration of 1%) and untreated controls. The normal lung (BEAS-2B) and cancer (H1299 and […]) cell lines were cultured and prepared for viability MTT assay in similar way. To treat wells, 100 µL of tested compounds in fresh medium were added at concentration range of 100, 50, 25, 12.5, 6.25, 3.13 µM (0 µM for control, untreated cells in DMEM-F12 without any tested compound additions). An etoposide as a positive control, as anticancer drug, was prepared in similar way. Followed by 72 h of incubation, the viability assay was performed according to the producer protocol (Promega, Madison, WI, USA), where the medium and compounds were removed and cells were washed with PBS solution. A yellow tetrazolium salt (3-(4,5-dimethylthiazol-2-yl)-2,5-diphenyltetrazolium bromide solution (0.5 mg/mL) in serum and phenol red-free DMEM (Merck, Poznań, Poland) was added to each well on plates at a volume of 50 µL for 2–3 h of darkness, at 37 °C incubation. The purple formazan crystals were produced only by the viable cells, containing NAD (P)H-dependent oxidoreductase enzymes, which reduce the MTT. The crystals were dissolved in acidic (0.04 M HCl) 2-propanolol solution (Merck, Poznań, Poland) after addition of 75 µL of dissolving mixture to each well on plates for 5–10 min in darkness and at room-temperature (RT) incubation. The absorption at 570 nm was measured directly using multiplate reader (Epoch, BioTek, Winooski, VT, USA). Each time, the biological experiments were repeated three times.
(§4) Obtained absorbance was analyzed for proliferation and survival fraction (SF) assessments, where tested samples were compared to the untreated controls (100%). […]

[2] = test system: H1299 cells; assay: 72-h MTT viability assay, H1299; type: cell-based, human; conditions: 72 h incubation, mean of 3 experiments +/-SD
Text: as §1, §2, §3, §4

[3] = test system: A549 cells; assay: 72-h MTT viability assay, A549; type: cell-based, human; conditions: 72 h incubation, mean of 3 experiments +/-SD
Text: as §1, §2, §3, §4

[4] = test system: BEAS-2B cells; assay: 72-h MTT viability assay, normal lung epithelial BEAS-2B; type: cell-based, human; conditions: 72 h incubation, mean of 3 experiments +/-SD, no effect = viability (SF) similar to control, about 100%; for IC50: Homo sapiens, BEAS-2B
Text: as §1, §2, §3, §4

[5] = test system: HCT116 cells; assay: 72-h MTT viability assay, HCT116; type: cell-based, human; conditions: 72 h incubation, mean of 3 experiments +/-SD
Text: as §1, §2, §3, §4

[6] = test system: HCT116, SH-SY5Y, A549, H1299 cell lines; assay: 72-h MTT viability assay, all cell lines used in the study (summary statements); type: cell-based, human; conditions: for anticancer activity (ranking within the series): HCT116 and SH-SY5Y, in words
Text: as §1, §2
HCT116 and SH-5YSY cells collected after trypsinization were counted under the Bürker’s chamber, and 2000 or 5000 cells were seeded on each well of the 96-well-format sterile plate (Sarstedt, Nümbrecht, Germany), in 100 µL of complete DMEM-F12 medium, respectively. Twenty-four hours before compound addition, the cells were monitored directly on plates; only well-attached cells were used for treatments with background controls (DMSO with final maximal concentration of 1%) and untreated controls. The normal lung (BEAS-2B) and cancer (H1299 and […]) cell lines were cultured and prepared for viability MTT assay in similar way. […] The absorption at 570 nm was measured directly using multiplate reader (Epoch, BioTek, Winooski, VT, USA). […]
as §4

SMILES	IC50 [1] [µM]	IC50 ([2]; Homo sapiens, NCI-H1299, 72 h) [µM]	IC50 ([3]; Homo sapiens, A549, 72 h) [µM]	IC50 [4] [µM]	IC50 ([5]; Homo sapiens, HCT-116, 72 h) [µM]	IC50 SH-SY5Y [1]	IC50 BEAS-2B [4]	melting point [°C]	anticancer activity (ranking within the series) [6]	IC50 [3] [µM]	IC50 ([3]; listed as etopiside) [µM]	IC50 [2] [µM]	IC50 ([6]; Homo sapiens, range over the cancer cell lines, read-out: IC50 values against all cell lines used in the study) [µM]	IC50 [5] [µM]
c1ccc2c3c(cnc2c1)Sc1cnc2ccccc2c1N3CCN1CCNCC1 [Compound 2e, 14-(piperazinyloethyl)dichinotiazyny]	4.9 ± 0.87	7 ± 1.85	10.1 ± 2.26	26.5 ± 1.85	10.3 ± 1.82	–	–	–	–	–	–	–	–	–
CS(=O)(=O)NCCCN1c2c(cnc3ccccc23)Sc2cnc3ccccc3c21 [Compound 6b, 14-methanesulfonylaminopropyldiquinothiazine]	–	25.9 ± 4.14	45.2 ± 17.2	–	15.6 ± 1.16	inactive; also recorded: no effect	no effect	199 to 200	–	–	–	–	–	–
CS(=O)(=O)NCCN1c2c(cnc3ccccc23)Sc2cnc3ccccc3c21 [Compound 6a, 14-methanesulfonylaminoethyldiquinothiazine]	–	36.9 ± 6.06	65.4 ± 14.1	–	20.2 ± 1.01	inactive; also recorded: no effect	no effect	229 to 230	–	–	–	–	–	–
CC(=O)NCCCCN1c2c(cnc3ccccc23)Sc2cnc3ccccc3c21 [Compound 5c, 14-acetylaminobutyldiquinothiazine]	21.9 ± 4.31	30.3 ± 1.57	49.3 ± 15.9	–	26.5 ± 1.15	–	no effect	68 to 69	lowest anticancer activity	–	–	–	–	–
c1ccc2c3c(cnc2c1)Sc1cnc2ccccc2c1N3CCN1CCOCC1 [Compound 2d]	13.5 ± 2.69	8.9 ± 1.02	20.7 ± 2.25	118 ± 18.4	23.1 ± 1.37	–	–	–	–	–	–	–	–	–
c1ccc2c3c(cnc2c1)Sc1cnc2ccccc2c1N3CCN1CCCCC1 [Compound 2c]	14.3 ± 1.49	7.5 ± 1.97	14.7 ± 2.81	–	–	–	no effect	–	–	–	–	–	–	–
CCN(CC)CCN1c2c(cnc3ccccc23)Sc2cnc3ccccc3c21 [Compound 2f]	–	22.2 ± 3.83	27.9 ± 2.07	122 ± 12	16.9 ± 1.73	inactive; also recorded: no effect	–	–	–	–	–	–	–	–
CN(C)CCCN1c2c(cnc3ccccc23)Sc2cnc3ccccc3c21 [Compound 2g]	–	24.5 ± 1.91	31.5 ± 2.36	–	13.1 ± 1.82	inactive; also recorded: no effect	no effect	–	–	–	–	–	–	–
COc1cc([C@@H]2c3cc4c(cc3[C@@H](O[C@@H]3O[C@@H]5CO[C@@H](C)O[C@H]5[C@H](O)[C@H]3O)[C@H]3COC(=O)[C@H]23)OCO4)cc(OC)c1O [etoposide, reference compound]	3.9 ± 0.76	0.6 ± 0.16	–	0.00311 ± 0.0002	8.6 ± 1.42	–	–	–	–	4.48 ± 0.21	44.8	–	–	–
CSc1ccc(N2c3c(cnc4ccccc34)Sc3cnc4ccccc4c32)cc1 [Compound 3c, 14-(methylthiophenyl)diquinothiazine]	2.7 ± 0.21	2.7	17.2 ± 1.02	69 ± 4.89	–	–	low cytotoxicity	262 to 263	strongest anticancer activity	–	–	1.6 ± 0.86	1.6 to 17.2	–
N#Cc1ccc(N2c3c(cnc4ccccc34)Sc3cnc4ccccc4c32)cc1 [Compound 3a, 14-(4-cyanophenyl)diquinothiazine]	–	3.7 ± 0.91	84.9 ± 12.1	–	< 8.6	inactive; also recorded: no effect	no effect	> 300	–	–	–	–	–	4.9 ± 1.97
O=C1CCCN1CCCN1c2c(cnc3ccccc23)Sc2cnc3ccccc3c21 [Compound 2b, 14-(pyrrolidinonylpropyl)diquinothiazine]	7.7 ± 2.59	5.3 ± 1.04	12.4 ± 2.25	83.5 ± 12.3	9.4 ± 4.41	–	–	–	–	–	–	–	–	–
c1ccc2c3c(cnc2c1)Sc1cnc2ccccc2c1N3 [Compound M0]	–	67.2 ± 9.64	18 ± 3.09	–	5.8 ± 0.63	inactive; also recorded: no effect	no effect	–	–	–	–	–	–	–
c1ccc2c3c(cnc2c1)Sc1cnc2ccccc2c1N3CCN1CCCC1 [Compound 2a, 14-(pyrrolidinylethyl)diquinothiazine]	6.5 ± 1.22	8.1 ± 1.83	13.3 ± 2.23	84.5 ± 11.1	11.1 ± 3.39	–	–	–	–	–	–	–	–	–
FC(F)(F)c1ccc(N2c3c(cnc4ccccc34)Sc3cnc4ccccc4c32)cc1 [Compound 3b, 14-(4-trifluoromethylphenyl)diquinothiazine]	–	14.6 ± 1.92	42.5 ± 16.5	86.1 ± 11	17.1 ± 4.81	inactive; also recorded: no effect	–	292 to 293	–	–	–	–	–	–
CS(=O)(=O)NCCCCN1c2c(cnc3ccccc23)Sc2cnc3ccccc3c21 [Compound 6c, 14-methanesulfonylaminobutyldiquinothiazine]	21.6 ± 7.64	13.4 ± 1.68	36.9 ± 16.8	–	17.6 ± 1.85	–	no effect	184 to 186	–	–	–	–	–	–
CC(=O)NCCCN1c2c(cnc3ccccc23)Sc2cnc3ccccc3c21 [Compound 5b, 14-acetylaminopropyldiquinothiazine]	21.4 ± 4.02	23.5 ± 1.97	56.5 ± 15.6	86.9 ± 9.67	17.7 ± 1.53	–	–	171 to 172	–	–	–	–	–	–
CC(=O)NCCN1c2c(cnc3ccccc23)Sc2cnc3ccccc3c21 [Compound 5a, 14-acetylaminoethyldiquinothiazine]	24.7 ± 5.44	26.2 ± 1.99	71.1 ± 14.7	108 ± 9.83	25.9 ± 4.87	–	–	89 to 90	lowest anticancer activity	–	–	–	–	–

From publication PMC10096123, “14-Substituted Diquinothiazines as a New Group of Anticancer Agents” (Molecules, 2023)
